Holding throughout (assay): NCI tumour cell line growth inhibition, 48 h
In assay [1] the test system is CAKI-1.
Assay [2] has as its system SK-MEL-5.
Assay [3] deals with M14.
Assay [4] has as its system SK-OV-3.
In assay [5] the test system is RPMI-8226.
In assay [6] the test system is NCI-H226.
Assay [7] deals with SNB-75.
In assay [8] the test system is T47D.
The test system of assay [9] is SK-MEL-28.
Assay [10] concerns UACC-257.
The test system of assay [11] is SW-620.
For assay [12], the system named is SK-MEL-2.
For assay [13], the system named is U-251.
Assay [14] concerns OVCAR-5.
For assay [15], the system named is HOP-62.
In assay [16] the test system is KM12.
Assay [17] relates to OVCAR-8.
In assay [18] the test system is A498.
Assay [19] relates to HCC 2998.
Assay [20] concerns LOX IMVI.

The structures appear in SMILES notation.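 Following 48 hours of exposure in 96-well plates, responses at five concentrations were used to interpolate endpoints linearly. At the GI50, growth is halved.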 Activity calls are given as the source filed them. Rule as the data show it: active = GI50 up to about 1.1 µM and inactive = higher.

Turning to `COc1cc(O)ccc1C(=S)SC`, the GI50 in assay [1] was 56.8 µM (inactive); in assay [2] it was 26.5 µM (inactive); in assay [3], > 100 µM (inactive); in assay [4], > 100 µM (inactive); in assay [5], 21.8 µM (inactive); in assay [6] it was 16 µM (inactive). For the same molecule, the GI50 in assay [7] was > 100 µM (inactive); in assay [8], 70.3 µM (inactive); in assay [9], > 100 µM (inactive); in assay [10], 51.5 µM (inactive); in assay [11], > 100 µM (inactive); in [12], > 100 µM (inactive). The GI50 in assay [13] is 54.2 µM (inactive); in assay [14], > 100 µM (inactive); in assay [15], > 100 µM (inactive); in assay [16], 69.7 µM (inactive); in assay [17], 58.7 µM (inactive).

As for `CN(C)c1n/c(=N/c2ccc3c(c2)OCO3)ss1`, the GI50 was 97.7 µM (inactive) in assay [1]; 55.3 µM (inactive) in assay [2]; 43.9 µM (inactive) in [18]; > 100 µM (inactive) in [3]; > 100 µM (inactive) in assay [4]; 19.3 µM (inactive) in assay [5]. Further, the GI50 was > 100 µM (inactive) in assay [6]; 44.4 µM (inactive) in [19]; 9.71 µM (inactive) in [7]; > 100 µM (inactive) in assay [9]; > 100 µM (inactive) in assay [10]; 74 µM (inactive) in assay [11]. In addition, the GI50 is > 100 µM (inactive) in assay [12]; 37.6 µM (inactive) in assay [13]; > 100 µM (inactive) in assay [14]; > 100 µM (inactive) in assay [15]; 64 µM (inactive) in assay [20]; 51.5 µM (inactive) in assay [16]. Moreover, the GI50 in [17] was 72.1 µM (inactive).

Turning to `CN(C)CCN(/C(=N/c1ccccc1)N1CCCC1)c1ccccc1`, the GI50 was > 100 µM (inactive) in assay [1]; 30.2 µM (inactive) in assay [2]; 43.7 µM (inactive) in assay [3]; > 100 µM (inactive) in assay [4]; 22.6 µM (inactive) in assay [5]; 75.9 µM (inactive) in [6]. The GI50 in assay [7] was 49 µM (inactive); in assay [8] it was > 100 µM (inactive); in assay [9], > 100 µM (inactive); in assay [10], 55.1 µM (inactive); in assay [11] it was 31.7 µM (inactive); in [12], > 100 µM (inactive). The GI50 was 68.5 µM (inactive) in assay [13]; > 100 µM (inactive) in assay [14]; 23.4 µM (inactive) in [15]; 4.06 µM (inactive) in assay [20]; 20 µM (inactive) in assay [16]; 68.7 µM (inactive) in assay [17].

In the case of `COC(=O)[C@H](C)[C@H]1CC[C@@](C)([C@H]2CC3C(C)(C)[C@H]4CCC(C)=C[C@H]4C[C@@]3(C)O2)OO1` (some centres undefined), the GI50 in [1] is 5.13 µM (inactive); in assay [2], 4.72 µM (inactive); in assay [18], 8.71 µM (inactive); in assay [3], 12.6 µM (inactive); in assay [4], 30.5 µM (inactive); in assay [5] it was 2.92 µM (inactive). Moreover, the GI50 was 14.7 µM (inactive) in [6]; 6.68 µM (inactive) in assay [19]; 6.14 µM (inactive) in [7]; 14.6 µM (inactive) in assay [9]; 12.1 µM (inactive) in [10]; 8.83 µM (inactive) in [11]. Moreover, the GI50 in [12] is 15.4 µM (inactive); in assay [13], 13 µM (inactive); in assay [14], 13.4 µM (inactive); in assay [15] it was 19.3 µM (inactive); in [20] it was 1.6 µM (inactive); in [16] it was 11.7 µM (inactive). Further, in [17], the GI50 was 10.7 µM (inactive).

As for `Oc1c(Cl)c(Cl)c(O)c(-c2cnc(-c3ncc(-c4c(O)c(Cl)c(Cl)c(O)c4Cl)s3)s2)c1Cl`, the GI50 in assay [1] is 20.9 µM (inactive); in [2], 7.8 µM (inactive); in assay [3], 19.5 µM (inactive); in assay [4] it was 41.2 µM (inactive); in assay [6] it was 3.96 µM (inactive); in [19], 36.6 µM (inactive). Besides, the GI50 in assay [7] was 28.1 µM (inactive); in [8], 29.9 µM (inactive); in assay [9] it was 29.6 µM (inactive); in assay [10], 29 µM (inactive); in [11] it was 21.4 µM (inactive); in assay [12], 18.4 µM (inactive). Also, the GI50 in assay [13] is 22.6 µM (inactive); in assay [14], 15.5 µM (inactive); in [15], 54.2 µM (inactive); in assay [16], 29.2 µM (inactive); in [17], 16.7 µM (inactive).

For `C/C(=N\NC(=S)NNC(=S)N(C)c1ccccc1)c1ccccn1`, the GI50 in assay [1] is 0.977 µM (active); in assay [3], 0.454 µM (active); in [4] it was 1.48 µM (inactive); in [5], 0.912 µM (active); in [6] it was 1.41 µM (inactive); in [19] it was 1.32 µM (inactive). For the same molecule, the GI50 in assay [7] is 6.76 µM (inactive); in [8] it was 2.96 µM (inactive); in [9] it was 4.25 µM (inactive); in assay [10], 1.31 µM (inactive); in [11], 0.489 µM (active); in assay [12], 5.68 µM (inactive). The GI50 in [13] is 1.11 µM (active); in assay [14] it was 24 µM (inactive); in [15], 0.885 µM (active); in assay [16], 4.21 µM (inactive); in assay [17], 0.538 µM (active).

As to `CCCNc1ncnc2c1cnn2C`, the GI50 in assay [1], in assay [2], in assay [18], in [3], in assay [4] and in assay [5] was > 100 µM (inactive) throughout. The GI50 in assay [6] was > 100 µM (inactive); in [19], > 100 µM (inactive); in [7], 51.3 µM (inactive); in assay [9] it was > 100 µM (inactive); in assay [10], > 100 µM (inactive); in assay [11], > 100 µM (inactive). Moreover, the GI50 in [12], in assay [13], in assay [14], in assay [15], in assay [20] and in assay [16] was > 100 µM (inactive) in each case. Also, in assay [17], the GI50 is > 100 µM (inactive).

Regarding `Cn1cnnc1Sc1c([N+](=O)[O-])nc(-c2ccc([N+](=O)[O-])cc2)n1C`, the GI50 in assay [1] was 32.7 µM (inactive); in assay [2] it was 16.9 µM (inactive); in [18], > 100 µM (inactive); in assay [3] it was 16.4 µM (inactive); in assay [4], > 100 µM (inactive); in assay [5], 16.1 µM (inactive). The GI50 in assay [6] is 20.9 µM (inactive); in assay [19] it was 17.5 µM (inactive); in assay [7] it was 31.3 µM (inactive); in [9], 16 µM (inactive); in assay [10], 16 µM (inactive); in assay [11] it was 16.1 µM (inactive). In addition, the GI50 in assay [12] was 15.1 µM (inactive); in assay [13], 16.6 µM (inactive); in assay [14] it was 27.7 µM (inactive); in assay [15] it was > 100 µM (inactive); in [20] it was 13.6 µM (inactive); in assay [16], 20.5 µM (inactive). In addition, in assay [17], the GI50 is 18.1 µM (inactive).

Consider `COc1ccc(/C=C2\Oc3cc(OC(C)=O)ccc3C2=O)cc1`, for which the GI50 in assay [1] is 21.1 µM (inactive); in assay [2] it was > 100 µM (inactive); in assay [3], > 100 µM (inactive); in assay [4], > 100 µM (inactive); in assay [5], 57.3 µM (inactive); in assay [6], > 100 µM (inactive). The GI50 in assay [19], in assay [7], in assay [8], in assay [9], in [10] and in assay [11] was > 100 µM (inactive) each time. Moreover, the GI50 in [13], in assay [15], in [16] and in assay [17] was > 100 µM (inactive) each time.

With `CC(=O)C(CN(C)Cc1ccccc1)C(c1ccccc1)c1c(O)c2ccccc2oc1=O` (centres undefined), the GI50 in [1] is > 100 µM (inactive); in [2], > 100 µM (inactive); in assay [18], > 100 µM (inactive); in assay [3], > 100 µM (inactive); in [4], > 100 µM (inactive); in [5] it was 58.6 µM (inactive). The GI50 was 10.4 µM (inactive) in assay [6]; > 100 µM (inactive) in [19]; > 100 µM (inactive) in assay [7]; > 100 µM (inactive) in assay [9]; > 100 µM (inactive) in [10]; > 100 µM (inactive) in assay [11]. The GI50 in assay [12], in assay [13], in assay [14], in [15], in [20] and in [16] was > 100 µM (inactive) in each case. In addition, in assay [17], the GI50 is > 100 µM (inactive).

Regarding `CCN(CC)[C@@H]1c2cc3c(cc2C(c2cc(OC)c(O)c(OC)c2)C2C(=O)CO[C@@H]21)OCO3` (some centres undefined), the GI50 in [1], in [2], in [18], in assay [3], in assay [4] and in [5] was > 100 µM (inactive) in each case. The GI50 in [6], in assay [19], in assay [7], in [9], in [10] and in [11] was > 100 µM (inactive) in each case. In addition, the GI50 in assay [12], in assay [13], in assay [14], in [15], in assay [20] and in assay [16] was > 100 µM (inactive) each time. Also, the GI50 in [17] was > 100 µM (inactive).

The values above are taken from ChEMBL document CHEMBL1201862, “PubChem BioAssay data set” (2004).
